# In the supplement of paper PMC10307832:
# Legend:
# Test in all cases: relative viability (nuclei count vs DMSO), 5 days (fraction); higher = more cells survive
# NCI-H1563 = tested on: NCI-H1563
# Outline: (§1)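 A single step with final 0.05% Triton X-100, 1% formaldehyde and 1 ug/ml Hoechst fixed the cells and stained nuclei 5 days after treatment. Lung cancer cell lines in 1536-well plates had been treated by pin tool the day after seeding with one drug alone or a fixed anchor-drug dose plus five library-drug doses (not always all listed) in √10 steps, and nuclei were counted on 4× images. Relative viability is the ratio of nuclei in treated wells to nuclei in vehicle wells, taken as the median of duplicate plates.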
# NCI-H1755 = tested on: NCI-H1755
# Outline: as §1
# NCI-H1792 = tested on: NCI-H1792
# Outline: as §1
# NCI-H727 = tested on: NCI-H727
# Outline: as §1
# LCLC-103H = tested on: LCLC-103H
# Outline: as §1
# NCI-H460 = tested on: NCI-H460
# Outline: as §1
# NCI-H2347 = tested on: NCI-H2347
# Outline: as §1
# LXF-289 = tested on: LXF-289
# Outline: as §1
# NCI-H1355 = tested on: NCI-H1355
# Outline: as §1
# NCI-H3122 = tested on: NCI-H3122
# Outline: as §1
# NCI-H1915 = tested on: NCI-H1915
# Outline: as §1
# NCI-H522 = tested on: NCI-H522
# Outline: as §1
# NCI-H1651 = tested on: NCI-H1651
# Outline: as §1
# NCI-H520 = tested on: NCI-H520
# Outline: as §1
# NCI-H661 = tested on: NCI-H661
# Outline: as §1
# NCI-H322M = tested on: NCI-H322M
# Outline: as §1
# RERF-LC-KJ = tested on: RERF-LC-KJ
# Outline: as §1
# SW 900 = tested on: SW 900
# Outline: as §1
# PC-14 = tested on: PC-14
# Outline: as §1
# SK-MES-1 = tested on: SK-MES-1
# Outline: as §1
# NCI-H441 = tested on: NCI-H441
# Outline: as §1
# NCI-H596 = tested on: NCI-H596
# Outline: as §1
structure (smiles),measurement,setting,value
COc1nc(C)cnc1NS(=O)(=O)c1cccnc1-c1ccc(-c2nnco2)cc1 [Zibotentan] + COc1cccc2cc(-c3nc([C@H]4CC[C@H](C(=O)O)CC4)n4ncnc(N)c34)[nH]c12 [OSI-027] (partner 0.5 µM),relative viability,NCI-H1563; first compound 0.08 µM,0.767
same,relative viability,NCI-H1563; first compound 0.8 µM,0.761
same,relative viability,NCI-H1563; first compound 2.53 µM,0.77
same,relative viability,NCI-H1755; first compound 0.08 µM,0.716
same,relative viability,NCI-H1755; first compound 0.253 µM,0.685
same,relative viability,NCI-H1755; first compound 0.8 µM,0.715
same,relative viability,NCI-H1755; first compound 2.53 µM,0.793
same,relative viability,NCI-H1792; first compound 0.08 µM,0.803
same,relative viability,NCI-H1792; first compound 0.253 µM,0.583
same,relative viability,NCI-H1792; first compound 0.8 µM,0.563
same,relative viability,NCI-H1792; first compound 2.53 µM,0.751
same,relative viability,NCI-H727; first compound 0.08 µM,0.591
same,relative viability,NCI-H727; first compound 0.253 µM,0.499
same,relative viability,NCI-H727; first compound 0.8 µM,0.601
same,relative viability,NCI-H727; first compound 2.53 µM,0.696
same,relative viability,LCLC-103H; first compound 0.08 µM,0.453
same,relative viability,LCLC-103H; first compound 0.253 µM,0.467
same,relative viability,LCLC-103H; first compound 0.8 µM,0.451
same,relative viability,LCLC-103H; first compound 2.53 µM,0.465
same,relative viability,NCI-H460; first compound 0.08 µM,0.665
same,relative viability,NCI-H460; first compound 0.253 µM,0.408
same,relative viability,NCI-H460; first compound 0.8 µM,0.593
same,relative viability,NCI-H460; first compound 2.53 µM,0.66
same,relative viability,NCI-H2347; first compound 0.253 µM,0.384
same,relative viability,NCI-H2347; first compound 0.8 µM,0.49
same,relative viability,NCI-H2347; first compound 2.53 µM,0.259
same,relative viability,LXF-289; first compound 0.08 µM,0.82
same,relative viability,LXF-289; first compound 0.253 µM,0.794
same,relative viability,LXF-289; first compound 0.8 µM,0.871
same,relative viability,LXF-289; first compound 2.53 µM,0.839
same,relative viability,NCI-H1355; first compound 0.08 µM,0.375
same,relative viability,NCI-H1355; first compound 0.253 µM,0.377
same,relative viability,NCI-H1355; first compound 0.8 µM,0.458
same,relative viability,NCI-H1355; first compound 2.53 µM,0.492
same,relative viability,NCI-H3122; first compound 0.08 µM,1.01
same,relative viability,NCI-H3122; first compound 0.8 µM,0.915
same,relative viability,NCI-H3122; first compound 2.53 µM,0.957
same,relative viability,NCI-H1915; first compound 0.08 µM,0.637
same,relative viability,NCI-H1915; first compound 0.253 µM,0.627
same,relative viability,NCI-H1915; first compound 0.8 µM,0.603
same,relative viability,NCI-H1915; first compound 2.53 µM,0.649
same,relative viability,NCI-H522; first compound 0.08 µM,0.704
same,relative viability,NCI-H522; first compound 0.253 µM,0.717
same,relative viability,NCI-H522; first compound 0.8 µM,0.684
same,relative viability,NCI-H522; first compound 2.53 µM,0.835
same,relative viability,NCI-H1651; first compound 0.08 µM,0.694
same,relative viability,NCI-H1651; first compound 0.253 µM,0.641
same,relative viability,NCI-H1651; first compound 0.8 µM,0.701
same,relative viability,NCI-H1651; first compound 2.53 µM,0.72
same,relative viability,NCI-H520; first compound 0.08 µM,0.295
same,relative viability,NCI-H520; first compound 0.253 µM,0.24
same,relative viability,NCI-H520; first compound 0.8 µM,0.264
same,relative viability,NCI-H520; first compound 2.53 µM,0.31
same,relative viability,NCI-H661; first compound 0.08 µM,0.801
same,relative viability,NCI-H661; first compound 0.253 µM,0.671
same,relative viability,NCI-H661; first compound 0.8 µM,0.705
same,relative viability,NCI-H661; first compound 2.53 µM,0.756
same,relative viability,NCI-H322M; first compound 0.08 µM,0.578
same,relative viability,NCI-H322M; first compound 0.253 µM,0.508
same,relative viability,NCI-H322M; first compound 0.8 µM,0.657
same,relative viability,NCI-H322M; first compound 2.53 µM,0.6
same,relative viability,RERF-LC-KJ; first compound 0.08 µM,0.609
same,relative viability,RERF-LC-KJ; first compound 0.8 µM,0.521
same,relative viability,RERF-LC-KJ; first compound 2.53 µM,0.646
same,relative viability,SW 900; first compound 0.08 µM,0.623
same,relative viability,SW 900; first compound 0.253 µM,0.607
same,relative viability,SW 900; first compound 0.8 µM,0.528
same,relative viability,SW 900; first compound 2.53 µM,0.496
same,relative viability,PC-14; first compound 0.08 µM,0.926
same,relative viability,PC-14; first compound 0.253 µM,0.651
same,relative viability,PC-14; first compound 0.8 µM,1.06
same,relative viability,PC-14; first compound 2.53 µM,0.929
same,relative viability,SK-MES-1; first compound 0.08 µM,0.595
same,relative viability,SK-MES-1; first compound 0.253 µM,0.228
same,relative viability,SK-MES-1; first compound 0.8 µM,0.555
same,relative viability,SK-MES-1; first compound 2.53 µM,0.702
same,relative viability,NCI-H441; first compound 0.08 µM,0.823
same,relative viability,NCI-H441; first compound 0.253 µM,0.404
same,relative viability,NCI-H441; first compound 0.8 µM,0.818
same,relative viability,NCI-H441; first compound 2.53 µM,0.752
same,relative viability,NCI-H596; first compound 0.08 µM,0.776
same,relative viability,NCI-H596; first compound 0.253 µM,0.643
same,relative viability,NCI-H596; first compound 0.8 µM,0.52
same,relative viability,NCI-H596; first compound 2.53 µM,0.717
